According to US20090088380A1, “GHRH ANALOGS AND THERAPEUTIC USES THEREOF” (priority 2007, published 2009):
Non-standard residues stand in square brackets, D forms with d. Residues, ends and D or L forms follow the SMILES beside them.

How the values were obtained:
[1] = target: T1, human GHRH receptor (Homo sapiens, UniProt Q02643); experiment: 125I-GHRH competitive binding assay in BHK cell membrane preparations; settings: in comparison with hGHRH(1-29)NH2; ratio IC50 hGHRH(1-29)-NH2/IC50 analog
T1 construct: expressed in transfected cells; host or cells: BHK (baby hamster kidney) 570 cells, membrane preparations
T1 sequence (Q02643 23-423): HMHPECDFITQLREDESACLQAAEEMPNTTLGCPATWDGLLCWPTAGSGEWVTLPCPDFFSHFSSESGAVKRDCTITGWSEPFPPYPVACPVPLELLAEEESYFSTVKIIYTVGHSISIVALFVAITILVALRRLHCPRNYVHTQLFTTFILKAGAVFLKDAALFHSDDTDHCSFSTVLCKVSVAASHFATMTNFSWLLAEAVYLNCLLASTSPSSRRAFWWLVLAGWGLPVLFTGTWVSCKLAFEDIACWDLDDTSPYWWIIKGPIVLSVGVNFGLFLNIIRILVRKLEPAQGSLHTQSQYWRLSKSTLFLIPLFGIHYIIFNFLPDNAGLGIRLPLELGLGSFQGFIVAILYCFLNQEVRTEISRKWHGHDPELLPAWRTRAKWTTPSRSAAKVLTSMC
Method: Non specific binding was determined in presence of 1 μM hGHRH(1-29)NH2. Incubation was carried out at equilibrium (23° C., 60 min) and stopped by centrifugation (12,000 g, 5 min, at 4° C.). The radioactivity content in pellets was determined by gamma counting. The affinity of hGHRH(1-29) NH2 was tested in each experiment to assess the validity of the assay and determine the relative affinity of the analogs.
Values represent the mean±SEM of 3 experiments performed in triplicate for the analogs and the mean±SEM of 2 experiments performed in triplicate for hGHRH(1-44) NH2.
For the binding assay results presented in Tables 8 to 11, values represent the mean±SEM of 8 independent experiments performed in triplicate for the analogs and the mean±SEM of 4 experiments performed in triplicate for hGHRH(1-29)NH2. […] The relative affinity was obtained by taking the ratio IC50 of hGHRH (1-29)-NH2/IC50 analog.

[2] = In vitro proteolysis assay in rat serum; format: in vitro ADME; settings: for Residual concentration (% of initial concentration): incubation 0 min
Method: (§2) Proteolysis was stopped by adding 800 μl of ice-cold stop buffer (potassium-phosphate buffer, acidified to pH 0.8 with trifluoroacetic acid (TFA) and boiling 5 min (rat serum only). After centrifugation (12000 g, 5 min, 4° C.) (rat serum only), serum-peptide mixtures were passed through a conditioned Sep-Pak C-18 cartridge to extract native GHRH or a GHRH analog residual concentrations from serum proteins. The native GHRH or the analog was eluted in 2 ml of 50% acetonitrile-0.01% TFA/50% 0.01% aqueous TFA. 200 μl of extracted peptide, representing 1 μg of GHRH or analog at time 0, was quantified by analytical HPLC, using one μ-Bondapak C18 column (10 μm particle size, 0.39×15 cm) (rat serum) or two C18 columns in series (human serum and plasma) and a binary solvent system composed of NaClO4 0.01 M, pH 2.5 and acetonitrile. A linear gradient from 30 to 60% acetonitrile over 45 min (rat serum) or 30 to 50% (human serum and plasma) was used. Elution of intact peptide was monitored at 214 nm and residual concentration determined by assessment of peak surface areas.

[3] = target: T2, hGHRH(1-44)-NH2 binding sites in rat anterior pituitary (Rattus norvegicus, UniProt Q02644); experiment: Relative binding affinity in rat anterior pituitary preparations, [125I-Tyr10]hGHRH(1-44)-NH2 radioligand; settings: values compared to hGHRH(1-29)-NH2
T2 construct: from tissue; host or cells: anterior pituitary of 2-month old male Sprague Dawley rats
T2 sequence (Q02644 23-423 isoform Q02644-2 limits assumed): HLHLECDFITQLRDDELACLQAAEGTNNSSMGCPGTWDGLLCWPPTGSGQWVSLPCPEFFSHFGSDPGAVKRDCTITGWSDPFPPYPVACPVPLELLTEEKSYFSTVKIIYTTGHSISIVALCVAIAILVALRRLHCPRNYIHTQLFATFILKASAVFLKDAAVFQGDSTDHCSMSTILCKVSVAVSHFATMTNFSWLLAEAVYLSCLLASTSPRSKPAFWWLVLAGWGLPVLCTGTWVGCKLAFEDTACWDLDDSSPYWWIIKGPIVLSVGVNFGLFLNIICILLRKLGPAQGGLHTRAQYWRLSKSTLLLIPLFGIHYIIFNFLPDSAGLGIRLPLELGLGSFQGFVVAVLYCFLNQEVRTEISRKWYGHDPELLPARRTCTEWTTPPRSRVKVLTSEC
From the text: Initial selection of a candidate from the original 14 polysubstituted GHRH analogs described in the U.S. Pat. No. 5,854,216 was based upon in vitro data on receptor affinity in 2-month old male Sprague Dawley rat anterior pituitary preparations. The embodiments are based on the affinity of selected GHRH analogs for the human GHRH receptor (hGHRH-R) in baby hamster kidney (BHK) cells transfected with hGHRH-R, and on resistance to proteolysis in rat serum, human plasma or human serum. More precisely, the preferred drug candidates were selected, as compared to hGHRH(1-29)-NH2, for: i-their increased relative binding affinity to hGHRH(1-44)-NH2 binding sites in rat anterior pituitary in vitro as well as to hGHRH-R in BHK-expressing cells in vitro; and ii-their relative resistance to proteolysis in vitro.

[4] = In vitro proteolysis assay in human serum; format: in vitro ADME; settings: human serum
Method: as §2

[5] = target: rat GHRH receptor (rat) (UniProt Q02644); experiment: competition with [125I-Tyr10]hGHRH(1-44)-NH2, rat anterior pituitary membrane preparations
[6] = target: human GHRH receptor (human) (UniProt Q02643); experiment: competition with [125I-Tyr10]hGHRH(1-44)NH2, BHK cell membrane preparations expressing the human GHRH receptor; settings: for Relative binding affinity (R1) in comparison with hGHRH(1-29)NH2: scale: ratio IC50 of hGHRH
[7] = tested on: Canine Growth Hormone; experiment: In vivo GH secretion in a male Beagle dog, escalating SC doses, RIA; settings: 0.01 mg/kg BW SC
From the text: In order to assess such use of the GHRH analogs, the following experiments were undertaken. […] The above GHRH analog is a variation of a synthetic acetate salt of an amidated synthetic 29-amino acid peptide that corresponds to the amino-terminal segment of the naturally-occurring human growth hormone—releasing hormone (GHRH) with four amino acid substitutions in positions 2, 10, 15, and 22.
Prior to administration, all dosing formulations were filtered using a 0.22 μm filter to ensure sterility. […] Dosing started at approximately the same time each day, commencing at 9:00 am ±30 minutes.
(§1) For pharmacodynamic investigations, blood samples (approximately 1.0 ml) were collected from the dog on each treatment day via a jugular venipuncture at the following time points: pre-dose, 7, 15, 22, 30, 45, and 60 minutes post dosing. All blood samples were collected into potassium EDTA tubes and centrifuged under refrigeration (2 to 8° C., 1500 g for 10 minutes).
Plasma GH was determined by Linco Diagnostic Services using their own kit. Linco's Porcine/Canine Growth Hormone radioimmunoassay kit (RIA) (PGH-46HK) has been developed to quantitate Growth Hormone in plasma, serum, and tissue culture media. It is a completely homologous assay since the antibody was raised against recombinant Porcine Growth Hormone and both the standard and tracer are prepared with recombinant Porcine Growth Hormone. Since the amino acid sequences of Porcine Growth Hormone and Canine Growth Hormone are identical, this assay developed for Porcine Growth Hormone measures Canine Growth Hormone levels with equal efficiency. All components are included (standards, antibody, tracer, quality controls, precipitating reagents and buffer) necessary to complete a RIA. The assay was conducted under the following conditions: overnight; equilibrium incubation at room temperature; sample volume: 100 μl serum, plasma, or cell culture media.

[8] = tested on: Rat Growth Hormone; experiment: In vivo GH secretion in adult female Sprague-Dawley rats, single SC or IV injection, RIA; settings: 0.03 mg/kg BW IV
Method: In order to assess such use of the GHRH analogs, the following experiments were undertaken. More specially, the goal was to assess the pharmacodynamic and pharmacokinetic profiles and acute toxicity of GHRH analog #5 when administered once by subcutaneous or intravenous injection to female Sprague-Dawley rats followed by a 14-day observation period and the pharmacodynamic profile in a male Beagle dog when the GHRH analog was administered at escalating doses to the same dog by subcutaneous injection with at least 2-day washout period. The above GHRH analog is a variation of a synthetic acetate salt of an amidated synthetic 29-amino acid peptide that corresponds to the amino-terminal segment of the naturally-occurring human growth hormone—releasing hormone (GHRH) with four amino acid substitutions in positions 2, 10, 15, and 22.
Human GHRH analog #5 in 0.9% sodium chloride for injection USP was administered once either by intravenous (IV) or subcutaneous (SC) injection to female rats followed by a 14-day observation period, as shown in Table 2. Prior to administration, all dosing formulations were filtered using a 0.22 μm filter to ensure sterility. The actual amount of GHRH analog #5 administered was calculated and adjusted based on the animal's most recent body weight. Dosing started at approximately the same time each day, commencing at 9:00 am ±30 minutes.
as §1, with “1.3” for “1.0”, “2 animals per group per time point (maximum 3 time points/animal)” for “the dog on each treatment day”, “pre-dose, 7, 15, 22, 30, 45, and 60 minutes post dosing.” left out
Rat Growth Hormone Determination • Plasma GH was determined by Linco Diagnostic Services using their own kit. Linco's Rat Growth Hormone radioimmunoassay kit (RIA) (RGH-45HK) is intended for the quantitative determination of Rat Growth Hormone in serum, plasma, and tissue culture media. It is a completely homologous assay since the antibody was raised against recombinant Rat Growth Hormone and both the tracer and the standard are prepared with the same recombinant Rat Growth Hormone. The kit includes standards, antibody, tracer, quality controls, precipitating reagents and buffer necessary to complete a RIA. The assay was conducted under the following conditions: overnight; equilibrium incubation at room temperature; sample volume: 100 μl serum, plasma, or cell culture media. The label used was 125I-Rat Growth Hormone (20,000 CPM/tube).

## CC[C@H](C)[C@H](NC(=O)[C@H](C)NC(=O)[C@H](CC(=O)O)NC(=O)[C@@H](C)NC(=O)[C@@H](N)Cc1ccc(O)cc1)C(=O)N[C@@H](Cc1ccccc1)C(=O)N[C@H](C(=O)N[C@@H](C)C(=O)N[C@@H](CO)C(=O)N[C@@H](Cc1ccc(O)cc1)C(=O)N[C@@H](CCCNC(=N)N)C(=O)N[C@@H](CCCCN)C(=O)N[C@H](C(=O)N[C@@H](CC(C)C)C(=O)N[C@@H](C)C(=O)N[C@@H](CCC(N)=O)C(=O)N[C@@H](CC(C)C)C(=O)N[C@@H](CO)C(=O)N[C@@H](C)C(=O)N[C@@H](CCCNC(=N)N)C(=O)N[C@@H](CCCCN)C(=O)N[C@@H](CCCCN)C(=O)N[C@@H](CC(C)C)C(=O)N[C@@H](CCC(N)=O)C(=O)N[C@@H](CC(=O)O)C(=O)N[C@H](C(=O)N[C@@H](CCSC)C(=O)N[C@@H](CO)C(=O)N[C@@H](CCCNC(=N)N)C(N)=O)[C@@H](C)CC)C(C)C)[C@@H](C)O [GHRH analog #1, [D-Ala^2, Ala^8, Ala^15, Lys^22] hGHRH(1-29)-NH2] (H-Y[dA]DAIFTASYRKVLAQLSARKKLQDIMSR-NH2; N-terminus assumed)
[1]
  Relative binding affinity (R1) in hGHRH-R BHK-expressing cells: 499 ± 234
[2]; compared to hGHRH(1-29)-NH2
  Relative resistance to proteolysis in vitro: 1.87
[2]
  Residual concentration (% of initial concentration): 100 ± 0 % of initial concentration
[3]
  Relative binding affinity in rat anterior pituitary: 13.33 ± 0.31

## CC[C@H](C)[C@H](NC(=O)[C@H](C)NC(=O)[C@H](CC(=O)O)NC(=O)[C@H](C)NC(=O)[C@@H](N)Cc1ccc(O)cc1)C(=O)N[C@@H](Cc1ccccc1)C(=O)N[C@H](C(=O)N[C@@H](CC(N)=O)C(=O)N[C@@H](CO)C(=O)N[C@@H](Cc1ccc(O)cc1)C(=O)N[C@@H](CCCNC(=N)N)C(=O)N[C@@H](CCCCN)C(=O)N[C@H](C(=O)N[C@@H](CC(C)C)C(=O)NCC(=O)N[C@@H](CCC(N)=O)C(=O)N[C@@H](CC(C)C)C(=O)N[C@@H](CO)C(=O)N[C@@H](C)C(=O)N[C@@H](CCCNC(=N)N)C(=O)N[C@@H](CCCCN)C(=O)N[C@@H](CC(C)C)C(=O)N[C@@H](CC(C)C)C(=O)N[C@@H](CCC(N)=O)C(=O)N[C@@H](CC(=O)O)C(=O)N[C@H](C(=O)N[C@@H](CCSC)C(=O)N[C@@H](CO)C(=O)N[C@@H](CCCNC(=N)N)C(N)=O)[C@@H](C)CC)C(C)C)[C@@H](C)O [hGHRH(1-29)NH2, reference compound]
[4]; IT 0 min
  Mean residual amount (%): 100%
[4]; IT 420 min
  Mean residual amount (%): disappeared totally
[2]
  Residual concentration (% of initial concentration): 100 ± 0 % of initial concentration

## [Ala8, Ala9, Ala15, Ala22] hGHRH(1-29)-NH2 (peptide)
[5]
  Relative binding affinity in rat anterior pituitary (relative to hGHRH(1-29)-NH2): 7.74
[6]
  IC50: 0.77 nM
  Relative binding affinity (R1) in comparison with hGHRH(1-29)NH2: 3.7

## [D-Ala2, Ala8, Ala15, Lys22] hGHRH(1-29)-NH2 (peptide)
[5]
  Relative binding affinity in rat anterior pituitary (relative to hGHRH(1-29)-NH2): 13.3
[6]
  IC50: 0.033 nM
  Relative binding affinity (R1) in comparison with hGHRH(1-29)NH2: 499

## [D-Ala2, Ala8, D-Tyr10, Ala15, D-Lys21, Lys22] hGHRH(1-29)-NH2 (peptide)
[5]
  Relative binding affinity in rat anterior pituitary (relative to hGHRH(1-29)-NH2): 5
[6]
  IC50: 37 nM
  Relative binding affinity (R1) in comparison with hGHRH(1-29)NH2: 0.05

## [D-Ala2, D-Tyr10, Lys22] hGHRH(1-29)-NH2 (peptide)
[5]
  Relative binding affinity in rat anterior pituitary (relative to hGHRH(1-29)-NH2): 4.9
[6]
  IC50: 0.0063 nM
  Relative binding affinity (R1) in comparison with hGHRH(1-29)NH2: 239

## hGHRH(1-44)NH2 [reference compound]
[7]; 0 min
  Canine Growth Hormone: 5 ng/mL
[7]; 7 min
  Canine Growth Hormone: 1 ng/mL
[7]; 15 min
  Canine Growth Hormone: 1.99 ng/mL
[7]; 22 min
  Canine Growth Hormone: 4 ng/mL
[7]; 30 min
  Canine Growth Hormone: 5 ng/mL
[7]; 45 min
  Canine Growth Hormone: 3 ng/mL
[7]; 60 min
  Canine Growth Hormone: 1.99 ng/mL
[8]; 4 min
  Plasma Rat Growth Hormone: 43.7 ng/mL
[8]; 10 min
  Plasma Rat Growth Hormone: 83.9 ng/mL
[8]; 15 min
  Plasma Rat Growth Hormone: 27.9 ng/mL
[8]; 45 min
  Plasma Rat Growth Hormone: 14.1 ng/mL
[8]; 300 min
  Plasma Rat Growth Hormone: 21.7 ng/mL
[8]; in ng·min/mL (unit assumed)
  GH AUC 45 min: 1380
  GH AUC 300 min: 5754
[8]; −120 min
  Plasma Rat Growth Hormone: 20.2 ng/mL
